Reference: the supplement of paper PMC10949913

What was measured:
Test in all cases: area under concentration-response curve (viability) (AUC (a.u.)); higher = less active
Conditions in all cases: 48 h
CU-ACC1 = system: CU-ACC1
Method in brief: (§1)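 Library compounds were dispensed at 11 concentrations (23 nL each) onto three adrenocortical carcinoma cell lines in 1,536-well plates. Luminescence was recorded after 48 h using CellTiter-Glo, and signals were normalised per plate to vehicle and empty-well controls. Fitted concentration-response curves of inhibitory or non-responding classes only supplied the AC50 and area under the curve.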

CU-ACC2 = system: CU-ACC2
Method in brief: as §1

NCI-H295R = system: NCI-H295R
Method in brief: as §1

SMILES	area under concentration-response curve (CU-ACC1)	area under concentration-response curve (CU-ACC2)	area under concentration-response curve (NCI-H295R)
CN(C)CC(C)(C)CNc1nn2c(-c3ccccc3)nnc2cc1C1CCC1	473	566	469
CC(C)[C@H]1C(=O)N[C@H](CO)Cc2c[nH]c3cccc(c23)N1C	384	539	575
CC(C)(O)C(=O)Nc1ccc([N+](=O)[O-])c(C(F)(F)F)c1	505	602	537
C[C@]12CC[C@@H]3c4ccc(OC(=O)N(CCCl)CCCl)cc4CC[C@H]3[C@@H]1CC[C@@H]2OP(=O)([O-])[O-]	489	466	533
CN(C(=O)c1ccc(F)cc1C(F)(F)F)C1CCN(c2nnc(-c3ccnn3C)c3ccccc23)CC1	495	601	566
COc1nc(C)nc(Cl)c1NC1=NCCN1	468	436	504
COc1cc(N2CCC(O)CC2)ccc1Nc1cc(Nc2ccccc2[S+](=O)([O-])C(C)C)c2cc[nH]c2n1	585	654	588
NC(=O)c1cccc(N)c1	582	656	595
Oc1ccc(/C=C/c2cc(O)cc(O)c2)cc1	482	574	547
CCC[C@@H]1C[C@@H](C(=O)N[C@@H]([C@H]2O[C@H](SC)[C@H](O)[C@@H](O)[C@H]2O)[C@H](C)Cl)N(C)C1	527	458	541
Cc1onc(-c2ccc(F)cc2)c1COc1ccc(C(=O)N2CC[S+](=O)([O-])CC2)cn1	596	646	616
CC(=O)O[C@@]1(CC[C@H]2[C@@H]3\C=C(C)/C4=C/C(=O)CC[C@]4(C)[C@H]3CC[C@]12C)C(C)=O	471	553	492
O=[N+]([O-])c1cnc(Sc2nnc(O)n2-c2ccc3c(c2)OCCO3)s1	529	611	517
CC(C)[C@H](N)C(=O)OCCOC[N]1C=NC2=C1\N=C(N)/NC2=O	449	394	390
COCCCN1CCC(NC(=O)c2cc(Cl)c(N)c3c2OCC3)CC1	562	549	565
COc1cc2c(cc1OC)CN(CCc1ccc(NC(=O)c3cc(OC)c(OC)cc3NC(=O)c3cnc4ccccc4c3)cc1)CC2	560	640	569
CC[C@H]1OC(=O)[C@H](C)[C@@H](O[C@H]2C[C@@](C)(OC)[C@@H](O)[C@H](C)O2)[C@H](C)[C@@H](O[C@@H]2O[C@H](C)C[C@H](N(C)C)[C@H]2O)[C@](C)(O)C[C@@H](C)C(=O)[C@H](C)[C@@H](O)[C@]1(C)O	544	634	594
CC1(C)O[C@@H]2C[C@H]3[C@@H]4CCC/5=C/C(=O)/C=C\[C@]5(C)[C@@]4(F)[C@@H](O)C[C@]3(C)[C@@]2(O1)C(=O)CO	551	517	548
O=C(O)CNC(=O)c1ncc(-c2cccc(Cl)c2)cc1O	486	568	516
CN(C)c1nc(N(C)C)nc(N(C)C)n1	509	577	476
CCN(CC)CCN1C(=O)\C(=N/C2=CC=CC=C12)CC3=CC=C(OC)C=C3	472	526	501
O=C(c1ccc(C(=O)N2CCC(N3CCCC3)CC2)c(Nc2ccccc2)c1)N1CCC(N2CCCC2)CC1	493	601	556
O=C(O)C(=O)Nc1cccc(-c2nnn[nH]2)c1	547	645	553
CCOc1cc(C(=O)Nc2ccc(Cl)c(-c3nc4ccccc4[nH]3)c2)cc(OCC)c1OCC	477	618	549
O=C1N\C=N/C2=C1C=N[NH]2	522	531	557
N#Cc1ccc(C(c2ccc(C#N)cc2)n2cncn2)cc1	488	428	516
CC(C)C[C@H](CN)CC(=O)O	474	595	545
C[C@@H]1COCCN1C\2=C\C(=O)N\3CC[C@H](N(CC4=CN=CC(=C4)Cl)C3=N2)C(F)(F)F	550	661	590
COc1ccccc1[C@H](c1cccc2ccccc12)[C@@](C)(C#N)C(=O)N1CCC(c2cccc(C(F)(F)F)c2)CC1	566	665	587
